Results published in PubChem BioAssay AID1845201 (Molecular Pharmacology Branch, DTP, NCI, 2023).

Test system: COR L88 complex tumor spheroid viability
Experiment: Anticancer human tumor COR L88 cell line growth inhibition;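 note: compound exposure lasted 7 days before viability readout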;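 for viability, T/C: percent of DMSO vehicle-treated spheroids = 100%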
Details: for IC50: curve of first compound; for viability, T/C: stronger effect = lower value
From the text: Multicellular complex tumor spheroid response to DNA repair inhibitors in combination with DNA-damaging drugs
This study explores the anticancer activities of DNA-damaging drugs and inhibitors of DNA damage repair, both as single agents and in combinations. Complex tumor spheroids comprised of malignant cells, endothelial cells and mesenchymal stem cells served as an in vitro model for human solid tumors. This model system incorporates physiologically relevant features and patient-derived or established malignant cell lines with clinically relevant genetic alterations from many tumor types. Twenty-six patient-derived or established malignant cell lines were evaluated representing sarcoma, melanoma, small cell lung cancer (SCLC), non-small cell lung cancer (NSCLC), as well as bladder, ovarian and pancreatic cancers. The concentration ranges selected for each drug and investigational agent were based upon clinically achievable concentrations if the clinical Cmax of the agent was known.
Compounds. The drugs and compounds olaparib (NSC753686), talazoparib (NSC767125), berzosertib (NSC777718), elimusertib (NSC800525), nedisertib (NSC802822), VX-984 (NSC792969), AZD-1390 (NSC803789), temozolomide (NSC362856), topotecan (NSC609699), trabectedin (NSC813783), staurosporine (NSC755774), and gemcitabine (NSC613327) were obtained from the National Cancer Institute (NCI) Developmental Therapeutics Program Chemical Repository. The FDA-approved anticancer drug set is available from the Developmental Therapeutics Program at https://dtp.cancer.gov/organization/dscb/obtaining/available_plates.htm. […] The stock solutions were prepared in dimethyl sulfoxide (DMSO, Sigma-Aldrich, St. Louis, MO, cat. D2650) at 400-fold the tested concentration and stored at -70 degrees C. Prior to their use, the stock solutions were diluted in fresh medium and the final DMSO concentration in the assay was 0.25% (v/v). All drugs and investigational agents were tested over a range starting from a high concentration at or near the clinical Cmax and decreasing in half-log increments. If the clinical Cmax for an agent had not been determined, the highest concentration tested was 10 microM.
Cell Lines. The patient-derived cancer cell (PDC) lines: 156681-154-R-J1-PDC, 283228-195-R-J1-PDC, 287954-098-R-J1-PDC, 292921-168-R-J2-PDC, 349418-098-R-PDC, 425362-245-T-J1-PDC, 556581-035-R-J1-PDC, and BL0293-F563-PDC were received from the NCI Patient-Derived Models Repository (PDMR, https://pdmr.cancer.gov). The established cell lines HS-SY-2 (RRID:CVCL_8719), MPNST, and SYO-1 (RRID:CVCL_7146) were obtained from the Sloan Kettering Institute. The alveolar soft parts sarcoma cell line ASPS-1 (RRID:CVCL_S738) was established at the NCI and grown from internal seed stocks. The following established cell lines were purchased from the American Type Culture Collection (ATCC, Manassas, VA): G-401 (ATCC, cat. CRL-1441, RRID:CVCL_0270), SW982 (ATCC, cat. HTB-93, RRID:CVCL_1734), VA-ES-BJ (ATCC, cat. CRL-2138, RRID:CVCL_1785), NCI-H719 (ATCC, cat. CRL-5837, RRID:CVCL_1582), NCI-H196 (ATCC, cat. CRL-5823, RRID:CVCL_1509), NCI-H841 (ATCC, cat. CRL-5845, RRID:CVCL_1595), NCI-H1618 (ATCC, cat. CRL-5879, RRID:CVCL_1480), NCI-H1876 (ATCC, cat. CRL-5902, RRID:CVCL_1503), DMS 114 (ATCC, cat. CRL-2066; RRID:CVCL_1174), NCI-H211 (ATCC, cat. CRL-5824; RRID:CVCL_1529), and SW 1271 (ATCC, cat. CRL-2177, RRID:CVCL_1716). The small cell lung cancer cell line COR-L88 was purchased from Sigma-Aldrich (cat. 92031917-1VL, RRID:CVCL_1141). The non-small cell lung cancer cell lines NCI-H226 (RRID:CVCL_1544) and NCI-H322M (RRID:CVCL_1557) were established at the NCI and grown from internal seed stocks. Pooled donor human umbilical vein endothelial cells (HUVEC, Lonza, cat. CC-2519) and human mesenchymal stem cells (hMSC, Lonza, cat. PT-2501) were purchased from Lonza (Walkersville, MD).
Cell Culture. All cells were maintained in an incubator at 37 degrees C and 5% CO2 with 95% humidity. […]

With `COc1cc(C)[nH]c(=O)c1CN1CCc2c(Cl)cc(C(OC)C3COC3)c(Cl)c2C1=O` (stereo not given) + Cn1nnc2c(C(N)=O)ncn2c1=O the IC50 (second compound 1 µM) was greater than 10 µM, the IC50 (second compound 3.16 µM) was greater than 10 µM and the IC50 (second compound 10 µM) was 0.549 µM. It also gave an IC50 (second compound 31.6 µM) of 0.111 µM, an IC50 (second compound 100 µM) of less than 0.0316 µM and a viability, T/C (second compound 1 µM, first compound 0.0316 µM) of 76.1%. It also gave a viability, T/C (second compound 1 µM, first compound 0.1 µM) of 75%, a viability, T/C (second compound 1 µM, first compound 0.316 µM) of 71.3% and a viability, T/C (second compound 1 µM, first compound 1 µM) of 65.9%. It also gave a viability, T/C (second compound 1 µM, first compound 3.16 µM) of 67.5%, a viability, T/C (second compound 1 µM, first compound 10 µM) of 66.6% and a viability, T/C (second compound 3.16 µM, first compound 0.0316 µM) of 74%. The viability, T/C (second compound 3.16 µM, first compound 0.1 µM) was 74.8%, the viability, T/C (second compound 3.16 µM, first compound 0.316 µM) was 63.4% and the viability, T/C (second compound 3.16 µM, first compound 1 µM) was 71.6%. The viability, T/C (second compound 3.16 µM, first compound 3.16 µM) was 69.7%, the viability, T/C (second compound 3.16 µM, first compound 10 µM) was 68.7% and the viability, T/C (second compound 10 µM, first compound 0.0316 µM) was 62.7%. It also gave a viability, T/C (second compound 10 µM, first compound 0.1 µM) of 57.4%, a viability, T/C (second compound 10 µM, first compound 0.316 µM) of 48.8% and a viability, T/C (second compound 10 µM, first compound 1 µM) of 50.3%. For the same compound, the viability, T/C (second compound 10 µM, first compound 3.16 µM) was 46.6%, the viability, T/C (second compound 10 µM, first compound 10 µM) was 43.2% and the viability, T/C (second compound 31.6 µM, first compound 0.0316 µM) was 55.5%. The viability, T/C (second compound 31.6 µM, first compound 0.1 µM) was 51.5%, the viability, T/C (second compound 31.6 µM, first compound 0.316 µM) was 39.7% and the viability, T/C (second compound 31.6 µM, first compound 1 µM) was 37%. The viability, T/C (second compound 31.6 µM, first compound 3.16 µM) was 33.3%, the viability, T/C (second compound 31.6 µM, first compound 10 µM) was 33.6% and the viability, T/C (second compound 100 µM, first compound 0.0316 µM) was 49%. For the same compound, the viability, T/C (second compound 100 µM, first compound 0.1 µM) was 43.5%, the viability, T/C (second compound 100 µM, first compound 0.316 µM) was 37.2% and the viability, T/C (second compound 100 µM, first compound 1 µM) was 35.3%. For the same compound, the viability, T/C (second compound 100 µM, first compound 3.16 µM) was 33.3% and the viability, T/C (second compound 100 µM, first compound 10 µM) was 31.6%.
In the case of `COc1ccc([C@@H](O)c2cc(-c3ncnc4cc(N5CCOCC5)ccc34)c(F)cc2Cl)nn1` + COc1cc2c(cc1O)CCNC21CSC2c3c(OC(C)=O)c(C)c4c(c3C(COC1=O)N1C(O)C3Cc5cc(C)c(OC)c(O)c5C(C21)N3C)OCO4, the IC50 (second compound 30 pM) is reported as 7.58 µM, the IC50 (second compound 94.9 pM) is reported as greater than 10 µM and the IC50 (second compound 0.0003 µM) is reported as 1.15 µM. For the same compound, the IC50 (second compound 0.000949 µM) was 0.111 µM, the IC50 (second compound 0.003 µM) was less than 0.0316 µM and the viability, T/C (second compound 30 pM, first compound 0.0316 µM) was 100%. The viability, T/C (second compound 30 pM, first compound 0.1 µM) was 115%, the viability, T/C (second compound 30 pM, first compound 0.316 µM) was 93.9% and the viability, T/C (second compound 30 pM, first compound 1 µM) was 89.2%. It also gave a viability, T/C (second compound 30 pM, first compound 3.16 µM) of 64.6%, a viability, T/C (second compound 30 pM, first compound 10 µM) of 45.3% and a viability, T/C (second compound 94.9 pM, first compound 0.0316 µM) of 104%. It also gave a viability, T/C (second compound 94.9 pM, first compound 0.1 µM) of 108%, a viability, T/C (second compound 94.9 pM, first compound 0.316 µM) of 102% and a viability, T/C (second compound 94.9 pM, first compound 1 µM) of 67.8%. The viability, T/C (second compound 94.9 pM, first compound 3.16 µM) was 57.4%, the viability, T/C (second compound 94.9 pM, first compound 10 µM) was 52.2% and the viability, T/C (second compound 0.0003 µM, first compound 0.0316 µM) was 71.4%. It also gave a viability, T/C (second compound 0.0003 µM, first compound 0.1 µM) of 63.9%, a viability, T/C (second compound 0.0003 µM, first compound 0.316 µM) of 61.7% and a viability, T/C (second compound 0.0003 µM, first compound 1 µM) of 52.5%. It also gave a viability, T/C (second compound 0.0003 µM, first compound 3.16 µM) of 35.8%, a viability, T/C (second compound 0.0003 µM, first compound 10 µM) of 9.95% and a viability, T/C (second compound 0.000949 µM, first compound 0.0316 µM) of 63.2%. The viability, T/C (second compound 0.000949 µM, first compound 0.1 µM) was 51.9%, the viability, T/C (second compound 0.000949 µM, first compound 0.316 µM) was 22.9% and the viability, T/C (second compound 0.000949 µM, first compound 1 µM) was 1.63%. The viability, T/C (second compound 0.000949 µM, first compound 3.16 µM) was 0.6%, the viability, T/C (second compound 0.000949 µM, first compound 10 µM) was 1.43% and the viability, T/C (second compound 0.003 µM, first compound 0.0316 µM) was 0.95%. For the same compound, the viability, T/C (second compound 0.003 µM, first compound 0.1 µM) was 1.03%, the viability, T/C (second compound 0.003 µM, first compound 0.316 µM) was 1.37% and the viability, T/C (second compound 0.003 µM, first compound 1 µM) was 2.44%. For the same compound, the viability, T/C (second compound 0.003 µM, first compound 3.16 µM) was 2.37% and the viability, T/C (second compound 0.003 µM, first compound 10 µM) was 2.01%.
